Data reported in ChEMBL document CHEMBL5550200, “Back-Pocket Optimization of 2-Aminopyrimidine-Based Macrocycles Leads to Potent EPHA2/GAK Kinase Inhibitors” (J Med Chem, 2024).
In brackets after ≈: the same amount, converted by molar mass.

Legend:
Ephrin type-A receptor 4 [1] = target: T1, Ephrin type-A receptor 4 (Homo sapiens, UniProt P54764); experiment: Induction of stabilization of recombinant EPHA4 (unknown origin) assessed as change in melting temperature by differential scanning fluorimetry assay
[2] = target: Ephrin type-A receptor 7 (Homo sapiens) (UniProt Q15375); experiment: Induction of stabilization of recombinant EPHA7 (unknown origin) assessed as change in melting temperature by differential scanning fluorimetry assay
[3] = target: T2, Ephrin type-B receptor 1 (Homo sapiens) (UniProt P54762); experiment: Induction of stabilization of recombinant EPHB1 (unknown origin) assessed as change in melting temperature by differential scanning fluorimetry assay
T2 sequence (whole entry): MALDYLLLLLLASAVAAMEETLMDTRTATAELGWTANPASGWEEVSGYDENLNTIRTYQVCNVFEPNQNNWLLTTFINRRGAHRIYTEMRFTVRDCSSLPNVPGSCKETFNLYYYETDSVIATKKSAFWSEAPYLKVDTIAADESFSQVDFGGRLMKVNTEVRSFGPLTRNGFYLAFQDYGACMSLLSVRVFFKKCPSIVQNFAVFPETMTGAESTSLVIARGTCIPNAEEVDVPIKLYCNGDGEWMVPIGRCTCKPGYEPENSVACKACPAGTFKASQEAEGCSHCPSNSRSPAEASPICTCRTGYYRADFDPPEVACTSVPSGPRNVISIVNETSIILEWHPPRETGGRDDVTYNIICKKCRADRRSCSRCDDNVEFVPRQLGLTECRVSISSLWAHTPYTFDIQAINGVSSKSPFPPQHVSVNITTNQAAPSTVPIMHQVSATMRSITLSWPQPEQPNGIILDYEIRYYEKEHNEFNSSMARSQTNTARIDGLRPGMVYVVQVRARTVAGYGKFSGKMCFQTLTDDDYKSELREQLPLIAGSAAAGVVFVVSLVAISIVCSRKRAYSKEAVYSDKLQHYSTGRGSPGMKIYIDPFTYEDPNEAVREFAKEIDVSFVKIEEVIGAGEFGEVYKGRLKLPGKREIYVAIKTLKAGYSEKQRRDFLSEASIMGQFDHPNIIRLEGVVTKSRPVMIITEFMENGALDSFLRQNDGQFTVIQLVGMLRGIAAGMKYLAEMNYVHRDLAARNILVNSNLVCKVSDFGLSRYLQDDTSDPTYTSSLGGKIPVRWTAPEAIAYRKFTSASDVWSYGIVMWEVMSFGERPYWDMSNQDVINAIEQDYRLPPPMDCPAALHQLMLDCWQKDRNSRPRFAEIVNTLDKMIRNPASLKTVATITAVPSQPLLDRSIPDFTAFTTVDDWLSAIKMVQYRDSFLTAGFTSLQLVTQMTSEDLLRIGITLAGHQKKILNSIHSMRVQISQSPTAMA

[4] = target: T3, Ephrin type-B receptor 3 (Homo sapiens) (UniProt P54753); experiment: Induction of stabilization of recombinant EPHB3 (unknown origin) assessed as change in melting temperature by differential scanning fluorimetry assay
T3 sequence (whole entry): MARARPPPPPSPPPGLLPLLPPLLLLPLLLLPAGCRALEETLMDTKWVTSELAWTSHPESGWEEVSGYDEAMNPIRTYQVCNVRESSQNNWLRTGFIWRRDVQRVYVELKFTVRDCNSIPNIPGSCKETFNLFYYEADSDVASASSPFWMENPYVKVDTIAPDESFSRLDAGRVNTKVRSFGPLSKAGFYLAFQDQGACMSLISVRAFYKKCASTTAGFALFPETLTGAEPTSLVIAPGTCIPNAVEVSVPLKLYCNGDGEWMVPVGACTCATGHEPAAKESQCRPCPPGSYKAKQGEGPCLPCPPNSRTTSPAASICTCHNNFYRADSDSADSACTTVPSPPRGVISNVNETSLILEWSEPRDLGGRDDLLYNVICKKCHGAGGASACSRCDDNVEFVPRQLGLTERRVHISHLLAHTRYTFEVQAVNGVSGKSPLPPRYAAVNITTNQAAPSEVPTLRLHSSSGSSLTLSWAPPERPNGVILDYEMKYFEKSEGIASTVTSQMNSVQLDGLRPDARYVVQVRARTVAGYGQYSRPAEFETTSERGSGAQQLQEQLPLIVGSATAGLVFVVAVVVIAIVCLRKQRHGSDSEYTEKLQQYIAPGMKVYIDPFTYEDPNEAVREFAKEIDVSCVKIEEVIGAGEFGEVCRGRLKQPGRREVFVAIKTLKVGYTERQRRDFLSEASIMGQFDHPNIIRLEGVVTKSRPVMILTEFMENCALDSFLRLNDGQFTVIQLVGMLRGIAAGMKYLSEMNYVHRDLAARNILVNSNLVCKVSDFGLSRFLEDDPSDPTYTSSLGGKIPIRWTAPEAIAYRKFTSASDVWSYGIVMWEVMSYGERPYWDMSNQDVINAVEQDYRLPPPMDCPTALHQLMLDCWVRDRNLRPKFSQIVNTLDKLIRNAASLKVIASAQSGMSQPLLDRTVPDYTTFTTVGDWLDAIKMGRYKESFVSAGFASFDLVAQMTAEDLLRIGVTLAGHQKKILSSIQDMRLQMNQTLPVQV

[5] = target: T4, Vascular endothelial growth factor receptor 1 (Homo sapiens, UniProt P17948); experiment: Induction of stabilization of recombinant FLT1 (unknown origin) assessed as change in melting temperature by differential scanning fluorimetry assay
dengue virus type 2 = experiment: Antiviral activity against DENV-2 New Guinea C infected in human Huh-7 cells assessed as reduction in virus induced cytopathic effect preincubated with cells for 1 hr followed by viral infection and measured after 45 to 48 hrs by luciferase assay; type: functional, organism-based; conditions: for EC90: time 45-48 hrs
Huh-7 = experiment: Cytotoxicity against human Huh-7 cells assessed as reduction in cell viability by alamar blue reagent based analysis; type: functional
[6] = target: Ephrin type-A receptor 5 (Homo sapiens) (UniProt P54756)
Description: Induction of stabilization of recombinant EPHA5 (unknown origin) assessed as change in melting temperature by differential scanning fluorimetry assay

[7] = target: T5, Fibroblast growth factor receptor 1 (Homo sapiens, UniProt P11362)
Target sequence in this assay (P11362 22-822 limits assumed): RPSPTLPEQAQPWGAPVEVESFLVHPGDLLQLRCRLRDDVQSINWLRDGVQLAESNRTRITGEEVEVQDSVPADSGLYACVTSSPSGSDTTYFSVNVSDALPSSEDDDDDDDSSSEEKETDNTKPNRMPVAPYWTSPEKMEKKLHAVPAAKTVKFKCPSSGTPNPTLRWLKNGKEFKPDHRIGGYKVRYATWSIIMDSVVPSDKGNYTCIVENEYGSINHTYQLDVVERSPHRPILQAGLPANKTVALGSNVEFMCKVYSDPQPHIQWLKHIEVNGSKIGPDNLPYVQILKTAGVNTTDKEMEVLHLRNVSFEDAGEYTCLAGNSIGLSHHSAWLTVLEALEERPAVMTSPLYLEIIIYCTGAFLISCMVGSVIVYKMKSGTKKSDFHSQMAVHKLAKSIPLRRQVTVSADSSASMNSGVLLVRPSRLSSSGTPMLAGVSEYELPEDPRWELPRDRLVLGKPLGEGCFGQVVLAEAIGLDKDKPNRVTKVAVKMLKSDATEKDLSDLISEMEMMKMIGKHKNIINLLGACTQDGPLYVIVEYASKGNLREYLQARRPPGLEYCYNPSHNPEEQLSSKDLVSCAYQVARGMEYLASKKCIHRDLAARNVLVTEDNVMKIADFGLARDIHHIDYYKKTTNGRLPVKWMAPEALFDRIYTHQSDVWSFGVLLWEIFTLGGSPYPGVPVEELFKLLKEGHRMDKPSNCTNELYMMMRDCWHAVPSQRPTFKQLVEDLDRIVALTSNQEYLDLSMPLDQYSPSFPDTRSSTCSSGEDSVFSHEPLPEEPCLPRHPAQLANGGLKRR
Description: Induction of stabilization of recombinant FGFR1 (unknown origin) assessed as change in melting temperature by differential scanning fluorimetry assay

[8] = target: Fibroblast growth factor receptor 2 (Homo sapiens) (UniProt P21802)
Description: Induction of stabilization of recombinant FGFR2 (unknown origin) assessed as change in melting temperature by differential scanning fluorimetry assay

[9] = Metabolic stability in Sprague-Dawley rat liver microsomes assessed as parent compound remaining at 10 uM measured after 60 min by HPLC analysis; type: ADME, Microsome; conditions: read-out: Stability
[10] = Metabolic stability in Sprague-Dawley rat liver microsomes assessed as half life at 10 uM preincubated for 5 mins followed by NADPH regenerating system measured upto 60 min by HPLC analysis; type: ADME, Microsome; conditions: time < 65 min
[11] = Solubility of the compound measured after 24 hrs by HPLC/MS analysis; type: physicochemical
Ephrin type-A receptor 4 [12] = target: T1, Ephrin type-A receptor 4; experiment: Inhibition of full length EPHA4 (unknown origin) expressed in HEK293T cells using NanoBRET NanoGlo substrate incubated for 2 hrs in presence of K4 tracer by NanoBRET assay; type: cell-based
[13] = target: Tyrosine-protein kinase ABL1 (Homo sapiens, UniProt P00519); experiment: Inhibition of full length ABL1 (unknown origin) expressed in HEK293T cells using NanoBRET NanoGlo substrate incubated for 2 hrs in presence of K4 tracer by NanoBRET assay; type: cell-based
[14] = target: T5, Fibroblast growth factor receptor 1; experiment: Inhibition of full length FGFR1 (unknown origin) expressed in HEK293T cells using NanoBRET NanoGlo substrate incubated for 2 hrs in presence of K10 tracer by NanoBRET assay; type: cell-based
[15] = target: T4, Vascular endothelial growth factor receptor 1; experiment: Inhibition of full length FLT1 (unknown origin) expressed in HEK293T cells using NanoBRET NanoGlo substrate incubated for 2 hrs in presence of K9 tracer by NanoBRET assay; type: cell-based
Ephrin type-A receptor 2 [16] = target: T6, Ephrin type-A receptor 2 (Homo sapiens, UniProt P29317)
Description: Induction of stabilization of recombinant EPHA2 (D596 to G900 residues) (unknown origin) expressed in Escherichia coli rosetta BL21(D3)-R3-pRARE2 competent cells assessed as change in melting temperature by differential scanning fluorimetry assay

Ephrin type-A receptor 2 [17] = target: T6, Ephrin type-A receptor 2; remark: listed apart in the source
Description: Binding affinity to recombinant his tagged EPHA2 (D596 to G900 residues) (unknown origin) expressed in Escherichia coli rosetta BL21(D3)-R3-pRARE2 competent cells assessed as dissociation constant by surface plasmon resonance method

[18] = target: T7, Cyclin-G-associated kinase (Homo sapiens) (UniProt O14976)
T7 sequence (whole entry): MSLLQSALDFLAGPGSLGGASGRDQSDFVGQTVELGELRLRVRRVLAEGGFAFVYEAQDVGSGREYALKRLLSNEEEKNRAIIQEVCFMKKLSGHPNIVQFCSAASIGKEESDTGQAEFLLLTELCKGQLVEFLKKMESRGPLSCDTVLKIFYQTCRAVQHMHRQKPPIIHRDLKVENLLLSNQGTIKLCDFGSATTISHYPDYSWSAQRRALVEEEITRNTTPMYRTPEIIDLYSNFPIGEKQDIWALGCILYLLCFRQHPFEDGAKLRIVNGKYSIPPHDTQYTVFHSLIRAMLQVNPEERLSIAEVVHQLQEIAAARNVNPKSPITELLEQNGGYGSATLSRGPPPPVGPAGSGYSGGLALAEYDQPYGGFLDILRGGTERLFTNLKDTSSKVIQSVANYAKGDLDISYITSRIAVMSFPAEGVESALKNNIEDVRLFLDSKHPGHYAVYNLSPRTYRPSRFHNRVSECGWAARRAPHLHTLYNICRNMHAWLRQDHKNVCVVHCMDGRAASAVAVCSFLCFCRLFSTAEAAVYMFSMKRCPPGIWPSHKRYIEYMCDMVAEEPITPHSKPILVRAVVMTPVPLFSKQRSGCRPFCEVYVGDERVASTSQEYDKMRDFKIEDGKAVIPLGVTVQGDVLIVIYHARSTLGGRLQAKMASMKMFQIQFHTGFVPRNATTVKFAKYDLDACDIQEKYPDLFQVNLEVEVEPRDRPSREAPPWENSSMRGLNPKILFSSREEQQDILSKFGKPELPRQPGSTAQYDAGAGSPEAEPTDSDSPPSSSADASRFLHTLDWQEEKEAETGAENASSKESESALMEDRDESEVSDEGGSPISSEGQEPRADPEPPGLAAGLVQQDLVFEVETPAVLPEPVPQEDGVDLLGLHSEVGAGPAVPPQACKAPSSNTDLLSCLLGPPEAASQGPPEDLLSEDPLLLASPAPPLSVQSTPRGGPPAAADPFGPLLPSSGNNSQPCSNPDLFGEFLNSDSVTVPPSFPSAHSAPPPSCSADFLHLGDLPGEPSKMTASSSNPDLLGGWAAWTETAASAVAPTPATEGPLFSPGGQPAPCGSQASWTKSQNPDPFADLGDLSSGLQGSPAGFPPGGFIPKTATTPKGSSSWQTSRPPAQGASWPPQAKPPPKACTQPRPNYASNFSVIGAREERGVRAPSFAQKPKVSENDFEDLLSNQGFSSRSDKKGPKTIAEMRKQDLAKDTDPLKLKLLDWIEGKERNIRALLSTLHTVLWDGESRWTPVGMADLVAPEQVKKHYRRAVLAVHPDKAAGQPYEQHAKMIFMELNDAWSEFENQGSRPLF
Description: Induction of stabilization of recombinant GAK (unknown origin) assessed as change in melting temperature by differential scanning fluorimetry assay

T4 sequence (P17948 whole entry): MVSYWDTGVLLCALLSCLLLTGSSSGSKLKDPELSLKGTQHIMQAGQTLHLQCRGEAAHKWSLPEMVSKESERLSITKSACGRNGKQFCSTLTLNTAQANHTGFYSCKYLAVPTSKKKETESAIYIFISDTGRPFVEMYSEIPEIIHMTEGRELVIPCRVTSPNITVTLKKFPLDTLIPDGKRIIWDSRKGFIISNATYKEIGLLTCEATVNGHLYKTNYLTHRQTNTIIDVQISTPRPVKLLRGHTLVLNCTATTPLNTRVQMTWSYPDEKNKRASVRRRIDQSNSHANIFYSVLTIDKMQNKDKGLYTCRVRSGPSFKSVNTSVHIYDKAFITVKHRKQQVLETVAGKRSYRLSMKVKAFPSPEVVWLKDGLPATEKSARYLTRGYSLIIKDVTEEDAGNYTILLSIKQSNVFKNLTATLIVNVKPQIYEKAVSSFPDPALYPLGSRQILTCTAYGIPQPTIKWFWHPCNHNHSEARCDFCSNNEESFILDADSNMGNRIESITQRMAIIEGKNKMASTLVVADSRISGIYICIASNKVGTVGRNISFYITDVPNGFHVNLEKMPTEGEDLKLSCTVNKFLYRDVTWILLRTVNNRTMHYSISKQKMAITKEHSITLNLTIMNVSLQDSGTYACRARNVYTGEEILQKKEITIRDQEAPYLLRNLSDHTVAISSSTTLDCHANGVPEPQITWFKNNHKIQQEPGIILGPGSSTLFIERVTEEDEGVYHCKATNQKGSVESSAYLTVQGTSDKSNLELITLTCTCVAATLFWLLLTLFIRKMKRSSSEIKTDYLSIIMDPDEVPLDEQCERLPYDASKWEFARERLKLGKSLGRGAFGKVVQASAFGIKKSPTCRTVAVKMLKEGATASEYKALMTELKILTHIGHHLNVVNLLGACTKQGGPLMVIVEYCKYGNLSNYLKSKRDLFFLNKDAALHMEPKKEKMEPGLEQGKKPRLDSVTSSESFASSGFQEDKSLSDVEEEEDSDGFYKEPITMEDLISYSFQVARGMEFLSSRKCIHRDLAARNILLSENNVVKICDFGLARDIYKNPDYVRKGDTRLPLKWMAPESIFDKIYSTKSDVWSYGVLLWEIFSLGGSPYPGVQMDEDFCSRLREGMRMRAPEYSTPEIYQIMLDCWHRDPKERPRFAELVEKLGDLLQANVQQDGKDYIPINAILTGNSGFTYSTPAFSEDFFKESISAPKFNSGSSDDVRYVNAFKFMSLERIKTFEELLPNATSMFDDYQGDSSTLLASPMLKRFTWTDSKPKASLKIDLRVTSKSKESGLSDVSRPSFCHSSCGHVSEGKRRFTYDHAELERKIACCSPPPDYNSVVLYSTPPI
T1 sequence (P54764 whole entry): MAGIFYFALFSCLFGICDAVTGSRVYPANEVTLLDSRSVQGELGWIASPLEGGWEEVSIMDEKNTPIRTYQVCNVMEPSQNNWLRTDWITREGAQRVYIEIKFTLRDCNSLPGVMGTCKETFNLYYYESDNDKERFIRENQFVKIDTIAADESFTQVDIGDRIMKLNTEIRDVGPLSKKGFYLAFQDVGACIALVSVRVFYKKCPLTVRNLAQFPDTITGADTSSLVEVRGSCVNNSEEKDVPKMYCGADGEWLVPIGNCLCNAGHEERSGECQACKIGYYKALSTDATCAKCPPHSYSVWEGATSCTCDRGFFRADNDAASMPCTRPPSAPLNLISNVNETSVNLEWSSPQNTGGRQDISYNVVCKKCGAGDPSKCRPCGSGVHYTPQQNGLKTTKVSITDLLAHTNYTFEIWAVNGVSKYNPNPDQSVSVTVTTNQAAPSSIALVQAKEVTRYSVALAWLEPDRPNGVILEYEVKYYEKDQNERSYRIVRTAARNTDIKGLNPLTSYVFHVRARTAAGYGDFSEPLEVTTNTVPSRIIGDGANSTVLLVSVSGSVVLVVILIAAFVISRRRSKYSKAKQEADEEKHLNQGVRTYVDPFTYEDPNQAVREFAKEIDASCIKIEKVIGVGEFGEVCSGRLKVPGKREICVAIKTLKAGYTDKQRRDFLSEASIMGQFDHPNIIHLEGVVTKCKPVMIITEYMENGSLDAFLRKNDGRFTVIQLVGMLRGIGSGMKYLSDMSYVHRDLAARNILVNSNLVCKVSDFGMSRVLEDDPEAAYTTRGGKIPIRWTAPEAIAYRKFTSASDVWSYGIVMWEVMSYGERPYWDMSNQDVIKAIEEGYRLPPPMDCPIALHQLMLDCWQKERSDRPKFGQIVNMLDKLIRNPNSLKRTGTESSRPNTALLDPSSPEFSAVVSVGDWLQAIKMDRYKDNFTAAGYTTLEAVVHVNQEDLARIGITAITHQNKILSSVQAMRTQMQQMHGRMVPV
Fibroblast growth factor receptor 2 (Homo sapiens), sequence (P21802 22-821 limits assumed): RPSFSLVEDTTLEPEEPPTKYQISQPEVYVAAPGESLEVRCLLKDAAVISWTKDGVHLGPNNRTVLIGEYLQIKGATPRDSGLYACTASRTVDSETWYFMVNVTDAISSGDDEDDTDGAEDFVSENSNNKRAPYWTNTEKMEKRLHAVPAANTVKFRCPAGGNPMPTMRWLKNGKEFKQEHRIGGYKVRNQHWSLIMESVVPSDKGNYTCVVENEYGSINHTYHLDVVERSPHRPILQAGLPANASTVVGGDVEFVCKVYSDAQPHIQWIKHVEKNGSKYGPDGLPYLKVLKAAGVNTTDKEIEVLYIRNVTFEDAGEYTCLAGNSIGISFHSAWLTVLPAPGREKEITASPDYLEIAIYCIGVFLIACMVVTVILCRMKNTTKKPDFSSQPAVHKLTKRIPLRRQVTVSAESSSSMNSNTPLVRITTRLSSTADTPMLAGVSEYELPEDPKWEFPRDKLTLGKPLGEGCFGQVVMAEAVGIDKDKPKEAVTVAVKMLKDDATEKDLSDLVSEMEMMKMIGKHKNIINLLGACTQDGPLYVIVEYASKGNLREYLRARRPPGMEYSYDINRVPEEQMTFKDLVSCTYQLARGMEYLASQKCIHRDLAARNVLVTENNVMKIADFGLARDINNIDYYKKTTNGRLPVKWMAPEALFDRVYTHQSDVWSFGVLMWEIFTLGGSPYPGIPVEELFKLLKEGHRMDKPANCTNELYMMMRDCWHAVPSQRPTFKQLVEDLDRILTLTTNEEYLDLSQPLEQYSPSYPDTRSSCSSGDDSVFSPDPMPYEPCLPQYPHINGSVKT
T6 sequence (P29317 whole entry): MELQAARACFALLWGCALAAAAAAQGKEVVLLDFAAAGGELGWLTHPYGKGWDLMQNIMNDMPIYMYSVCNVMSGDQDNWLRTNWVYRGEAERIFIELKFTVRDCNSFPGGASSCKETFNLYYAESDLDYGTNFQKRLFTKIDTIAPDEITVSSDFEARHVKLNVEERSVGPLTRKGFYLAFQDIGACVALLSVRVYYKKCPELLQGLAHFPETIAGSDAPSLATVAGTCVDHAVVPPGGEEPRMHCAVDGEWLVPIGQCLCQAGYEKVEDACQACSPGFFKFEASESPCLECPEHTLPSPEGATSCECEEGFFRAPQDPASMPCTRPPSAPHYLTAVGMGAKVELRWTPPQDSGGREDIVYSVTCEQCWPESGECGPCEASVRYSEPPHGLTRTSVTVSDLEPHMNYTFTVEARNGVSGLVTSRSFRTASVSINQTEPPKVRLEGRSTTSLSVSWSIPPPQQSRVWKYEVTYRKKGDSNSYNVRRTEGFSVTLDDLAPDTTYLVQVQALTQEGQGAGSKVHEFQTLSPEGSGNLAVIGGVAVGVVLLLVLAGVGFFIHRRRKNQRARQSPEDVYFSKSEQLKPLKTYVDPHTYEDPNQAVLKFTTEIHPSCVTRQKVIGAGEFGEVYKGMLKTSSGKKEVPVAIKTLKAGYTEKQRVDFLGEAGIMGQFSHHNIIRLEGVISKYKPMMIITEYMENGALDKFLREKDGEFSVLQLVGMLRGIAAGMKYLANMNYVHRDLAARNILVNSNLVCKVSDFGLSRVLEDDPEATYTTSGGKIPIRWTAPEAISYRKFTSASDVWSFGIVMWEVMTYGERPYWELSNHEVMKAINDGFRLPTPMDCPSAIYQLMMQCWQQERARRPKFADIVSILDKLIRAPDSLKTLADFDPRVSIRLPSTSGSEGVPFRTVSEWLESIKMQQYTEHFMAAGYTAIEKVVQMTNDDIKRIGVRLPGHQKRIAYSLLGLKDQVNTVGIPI

deltaTm (Ephrin type-A receptor 4 [1]) [K] | deltaTm [2] [K] | deltaTm [3] [K] | deltaTm [4] [K] | deltaTm [5] [K] | EC50 (dengue virus type 2) [µM] | EC90 (dengue virus type 2) [µM] | deltaTm [6] [K] | deltaTm [7] [K] | deltaTm [8] [K] | Structure (SMILES) | CC50 (Huh-7) [µM] | also measured
4.5 | 1 | 2.6 | 3.1 | 1.8 | > 10 | > 10 | 5.4 | 2.5 | 4.5 | COCCOc1ccc2cc1S(=O)(=O)NCCCNc1nc(ncc1-c1ccc(F)c(OC)c1)N2 | > 10 | –
4.4 | 1 | 3.1 | 1.6 | 1.3 | > 10 | > 10 | 4.7 | 2 | 3.4 | COc1cc(-c2cnc3nc2NCCCNS(=O)(=O)c2cc(ccc2OC)N3)ccc1F | > 10 | –
2.6 | 0.5 | 3.2 | 0 | 2.7 | – | – | 3.5 | 2.4 | 3.6 | Cc1cc(Cl)c(Cl)cc1-c1cnc2nc1NCCCNS(=O)(=O)c1cccc(c1)N2 | – | deltaTm (Ephrin type-A receptor 2 [16]): 6.2 K; deltaTm [18]: 4.9 K

Continued, compound first:

Structure (SMILES) | deltaTm (Ephrin type-A receptor 4 [1]) [K] | deltaTm [2] [K] | deltaTm [3] [K] | deltaTm [4] [K] | deltaTm [5] [K] | EC50 (dengue virus type 2) [µM] | EC90 (dengue virus type 2) [µM] | deltaTm [6] [K] | deltaTm [7] [K] | deltaTm [8] [K] | CC50 (Huh-7) [µM] | also measured
COc1cc(-c2cnc3nc2NCCCNS(=O)(=O)c2cccc(c2)N3)ccc1Br | 3.2 | 0.1 | 2.8 | 4 | 2.6 | 5.3 | 9.8 | 5 | 1.8 | 2.4 | > 10 | remaining at 1 h, 10 µM [9]: 87%; half-life at 10 µM [10]: 4.6 h; solubility at 24 h [11]: 2.24 µg/mL (≈ 4.57 µM)
O=C(Nc1ccccc1Cl)c1cnc2ccc(C3CCNCC3)cn12 | – | – | – | – | – | 6.5 | > 10 | – | – | – | > 10 | EC50 (Ephrin type-A receptor 4 [12]): 0.048 µM; EC50 [13]: 49 µM; EC50 [14]: > 50 µM; EC50 [15]: > 50 µM
CCNc1nc(Nc2cccc(S(=O)(=O)NC)c2)ncc1-c1ccc(F)c(OC)c1 | – | – | – | – | – | – | – | – | – | – | – | deltaTm (Ephrin type-A receptor 2 [16]): 4.2 K; Kd (Ephrin type-A receptor 2 [17]): Not Active
COc1cc(-c2cnc3nc2NCCCNS(=O)(=O)c2cccc(c2)N3)ccc1F | 3.6 | 0.3 | 4.3 | 5.6 | 6.3 | > 10 | > 10 | 5.4 | 3.3 | 4.4 | > 10 | half-life at 10 µM [10]: 6.6 h
